This is an account of results in patent US12497394B2, “Fused-cyclic pyrazolone formamide compound and preparation method therefor, pharmaceutical composition and use thereof” (SHANGHAI INSTITUTE OF MATERIA MEDICA, CHINESE ACADEMY OF …, priority 2018, dated 2025).

Assay [1] concerns the target T1, receptor tyrosine kinase AXL (Homo sapiens, UniProt P30530).
T1 construct: 50 μL of AXL kinase domain recombinant protein diluted in reaction buffer was added to start the reaction; made in house; host or cells: insect cells (baculovirus expression system)
T1 sequence (P30530 536-807 limits assumed): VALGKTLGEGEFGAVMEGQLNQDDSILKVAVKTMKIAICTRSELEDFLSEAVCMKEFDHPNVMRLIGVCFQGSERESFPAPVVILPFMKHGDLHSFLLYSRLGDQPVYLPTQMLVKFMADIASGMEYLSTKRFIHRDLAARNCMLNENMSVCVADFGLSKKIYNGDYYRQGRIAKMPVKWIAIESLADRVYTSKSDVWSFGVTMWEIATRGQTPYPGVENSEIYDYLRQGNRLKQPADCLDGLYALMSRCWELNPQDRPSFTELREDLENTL
In words: Enzyme activity of receptor tyrosine kinase AXL (ELISA). The class given is biochemical. The conditions noted are these: read-out: AXL activity Inhibitory rate(%); for inhibition at 0.001 µM: 1 nM; for inhibition at 0.01 µM: 10 nM; for inhibition at 0.1 µM: 100 nM. The protocol: Detection method: Enzyme-linked immunosorbent assay (ELISA)
Tested receptor tyrosine kinase: AXL
The full-wavelength microplate reader for experiment reading was a product of Molecular Device, model: SpectraMax 190; the experiment water was distilled water produced by Sinopharm Group.
Compound preparation: The compounds were centrifuged at 12,000 g for 5 min, and DMSO was added to prepare a 10^−2M stock solution, vortexed evenly and sonicated for 10 min for use, and stored at −40° C. During the test, the compound was diluted from the stock solution to 100 times the tested concentration with DMSO (the DMSO concentration in the system was 1%).
1. […] Discard the liquid from the well. The plate was washed and washed three times with T-PBS (0.1% Tween-20 in potassium-free PBS, 200 μL/well) for 5 minutes each time.
2. 49 μL of ATP solution diluted with reaction buffer (50 mM HEPES pH 7.4, 50 mM MgCl2, 0.5 mM MnCl2, 0.2 mM Na3VO4, 1 mM DTT) was added to each well, and […] of the tested compound was added to each well, and then 50 μL of AXL kinase domain recombinant protein diluted in reaction buffer was added to start the reaction. Two control wells without ATP were added in each experiment. (100 rpm) Reacted in 37° C. shaker for 1 hour. Discard the liquid from the well, and the plate was washed with T-PBS for three times.
3. […] Discard the liquid from the well, and the plate was washed with T-PBS for three times.
4. The horseradish peroxidase-labeled goat anti-mouse second antibody dilution (antibody diluted 1:2000 with BSA 5 mg/mL in T-PBS), 100 μL/well, and reacted in 37° C. shaker for 0.5 hours. Discard the liquid from the well, and the plate was washed with T-PBS for three times.
6. The reaction was quenched with 50 μL/well 2M […], and read at 490 nm using a tunable microplate reader VERSAmax.
The IC50 values were obtained by four-parameter regression analysis using the software supplied with the microplate reader.
Background: In an ELISA, binding on a coated surface is turned into a signal by an enzyme label.

The subject of another assay is BaF3/TEL-AXL cells. Put plainly: Proliferation of BaF3/TEL-AXL cells. The class given is cell-based. The following applies: for inhibition at 0.001 µM / inhibition at 0.01 µM / inhibition at 0.1 µM: BaF3/TEL-AXL. From the text:
Experimental Example 4: Effect of the Compound on the Proliferation Effect of BaF3/TEL-AXL Cells
Based on the above-mentioned enzyme activity research results, we further explored the effect of the compound on cell proliferation mediated by receptor tyrosine kinase AXL.

For assay [2], the target named is receptor tyrosine kinase c-Met (Homo sapiens, UniProt P08581). In words: In vitro c-Met kinase inhibitory activity. The following applies: two values per compound; for inhibition at 0.001 µM / inhibition at 0.01 µM / inhibition at 0.1 µM: read-out: c-Met Inhibitory rate (%). The class given is biochemical. From the text: Experimental Example 3: Study of In Vitro c-Met Kinase Inhibitory Activity
Since the screening results of 369 kinase profiles of compound DC621044 has shown that the compound has a certain inhibitory activity on c-Met. We further screened some compounds for their inhibitory activity on c-Met kinase.

Setting [3] is: 1 nM, two values per compound, 0.001 µM.
[4] abbreviates: 100 nM, two values per compound, 0.1 µM.
[5] abbreviates: 1 nM, two values per compound, read-out: BaF3/TEL-AXL proliferation Inhibitory rate (%).
Where [6] appears, read: 10 nM, two values per compound, read-out: BaF3/TEL-AXL proliferation Inhibitory rate (%).
Where [7] appears, read: 100 nM, two values per compound, read-out: BaF3/TEL-AXL proliferation Inhibitory rate (%).
[8] abbreviates: 10 nM, two values per compound, 0.01 µM.

Where “and” joins values, the source holds several entries; their conditions need not be identical. Equal values may be shown once. Read-outs that look alike come from different tables or passages of the source.

Chain of receptor tyrosine kinase c-Met (P08581 25-1390): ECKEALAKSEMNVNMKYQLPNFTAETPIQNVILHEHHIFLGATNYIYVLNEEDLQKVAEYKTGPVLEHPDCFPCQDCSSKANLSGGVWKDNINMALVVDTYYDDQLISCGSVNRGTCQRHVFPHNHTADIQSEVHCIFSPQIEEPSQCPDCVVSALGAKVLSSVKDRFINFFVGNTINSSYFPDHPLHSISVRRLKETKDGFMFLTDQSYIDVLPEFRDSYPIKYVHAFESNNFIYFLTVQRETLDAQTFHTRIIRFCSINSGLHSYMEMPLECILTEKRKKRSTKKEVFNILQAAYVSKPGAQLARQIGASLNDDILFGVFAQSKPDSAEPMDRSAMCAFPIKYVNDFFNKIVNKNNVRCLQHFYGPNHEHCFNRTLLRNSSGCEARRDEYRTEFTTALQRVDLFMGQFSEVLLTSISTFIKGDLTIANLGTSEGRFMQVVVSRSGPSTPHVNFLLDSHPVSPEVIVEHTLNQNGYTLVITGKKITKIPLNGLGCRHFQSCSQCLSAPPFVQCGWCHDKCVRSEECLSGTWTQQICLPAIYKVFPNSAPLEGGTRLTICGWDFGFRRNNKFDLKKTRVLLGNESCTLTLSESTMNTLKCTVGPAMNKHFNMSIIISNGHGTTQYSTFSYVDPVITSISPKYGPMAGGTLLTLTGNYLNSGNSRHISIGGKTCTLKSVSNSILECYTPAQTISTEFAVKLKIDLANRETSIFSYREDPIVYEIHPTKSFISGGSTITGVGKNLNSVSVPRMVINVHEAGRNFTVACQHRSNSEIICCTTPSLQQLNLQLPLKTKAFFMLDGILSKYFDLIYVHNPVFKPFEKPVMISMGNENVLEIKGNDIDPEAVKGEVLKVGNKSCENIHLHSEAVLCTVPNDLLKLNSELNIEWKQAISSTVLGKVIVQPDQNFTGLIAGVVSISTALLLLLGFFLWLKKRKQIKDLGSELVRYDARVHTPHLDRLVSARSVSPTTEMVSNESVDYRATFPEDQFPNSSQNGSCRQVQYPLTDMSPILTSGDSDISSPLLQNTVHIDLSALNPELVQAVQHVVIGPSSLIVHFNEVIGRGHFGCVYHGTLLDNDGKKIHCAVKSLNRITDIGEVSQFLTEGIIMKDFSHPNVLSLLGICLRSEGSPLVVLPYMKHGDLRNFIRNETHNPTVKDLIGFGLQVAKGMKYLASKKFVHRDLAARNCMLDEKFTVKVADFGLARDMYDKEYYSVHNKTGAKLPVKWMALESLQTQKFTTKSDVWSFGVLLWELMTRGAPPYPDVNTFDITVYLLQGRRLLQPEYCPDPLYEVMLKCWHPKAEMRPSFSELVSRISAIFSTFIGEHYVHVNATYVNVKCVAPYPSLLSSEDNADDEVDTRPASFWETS

With `COCCOc1cc2ncnc(Oc3ccc(NC(=O)c4c5n(n(-c6ccccc6F)c4=O)CCCC5)c(F)c3)c2cc1OCCOC` [DC621057, N-(4-((6,7-bis(2-methoxyethoxy)quinazolin-4-yl)oxy)-2-fluorophenyl)-1-(2-fluorophenyl)-2-oxo-1,2,4,5,6,7-hexahydropyrazolo[1,5-a]pyridine-3-formamide], the inhibition at 0.001 µM in assay [1] is 16%; in the assay on BaF3/TEL-AXL cells (setting [5]), 69.5%; in assay [2] (1 nM), 34%. Also, the inhibition at 0.01 µM is 55.1% in assay [1], 83.2% in the assay on BaF3/TEL-AXL cells (setting [6]) and 55.2% in assay [2] (10 nM). The results for the inhibition at 0.1 µM (in assay [1]; in the assay on BaF3/TEL-AXL cells (setting [7]); in assay [2] (100 nM)) were 91.9%, 87.5% and 94.6%, respectively. The “BaF3/TEL-AXL proliferation Inhibitory rate (%)” value was 76.6% in the assay on BaF3/TEL-AXL cells (setting [3]) and 86.0% in the assay on BaF3/TEL-AXL cells (setting [4]). Moreover, the “c-Met Inhibitory rate (%)” value in assay [2] (1 nM, 0.001 µM) is 51.3%; in assay [2] (10 nM, 0.01 µM) it was 64.0%; in assay [2] (100 nM, 0.1 µM) it was 95.9%.
Turning to `COCCOc1cc2ncnc(Oc3ccc(NC(=O)c4c5n(n(-c6cc(F)ccc6F)c4=O)CCCC5)c(F)c3)c2cc1OCCOC` [DC621054, 1-(2,5-difluorophenyl)-N-(4-((6,7-bis(2-methoxyethoxy)quinazolin-4-yl)oxy)-2-fluorophenyl)-2-oxo-1,2,4,5,6,7-hexahydropyrazolo[1,5-a]pyridine-3-formamide], the values for the inhibition at 0.001 µM (in assay [1]; with BaF3/TEL-AXL cells (setting [5]); in assay [2] (1 nM)) were 12.2%, 79.6% and 61.1%, respectively. The inhibition at 0.01 µM in assay [1] amounted to 58.2%; in the assay on BaF3/TEL-AXL cells (setting [6]) it was 82.8%. The inhibition at 0.1 µM in assay [1] came to 95.9%; in the assay on BaF3/TEL-AXL cells (setting [7]) it was 84.7%; in assay [2] (100 nM), 94.1%. In addition, the results for the “BaF3/TEL-AXL proliferation Inhibitory rate (%)” value in the assay with BaF3/TEL-AXL cells (setting [3]), in the assay with BaF3/TEL-AXL cells (setting [8]) and in the assay with BaF3/TEL-AXL cells (setting [4]) were 81.8%, 82.5% and 86.1%, respectively. The “c-Met Inhibitory rate (%)” value in assay [2] (1 nM, 0.001 µM) is 60.0%; in assay [2] (10 nM, 0.01 µM) it was 48.9% and 69.6%; in assay [2] (100 nM, 0.1 µM), 100%.
For `COCCOc1cc2ncnc(Oc3ccc(NC(=O)c4c5n(n(-c6ccccc6F)c4=O)CCCC5)cc3C(F)(F)F)c2cc1OCCOC` [DC621092, N-(4-((6,7-bis(2-methoxyethoxy)quinazolin-4-yl)oxy)-3-trifluoromethylphenyl)-1-(2-fluorophenyl)-2-oxo-1,2,4,5,6,7-hexahydropyrazolo[1,5-a]pyridine-3-formamide], the inhibition at 0.001 µM was determined as 4.8% in assay [1] and 25.3% in assay [2] (1 nM). Further, the inhibition at 0.01 µM in assay [1] was 61%; in assay [2] (10 nM) it was 71.6%. The inhibition at 0.1 µM stood at 78% in assay [1] and 94.2% in assay [2] (100 nM). Further, the “c-Met Inhibitory rate (%)” value in assay [2] (1 nM, 0.001 µM) was determined as 16.8%; in assay [2] (10 nM, 0.01 µM) it was 53.1%; in assay [2] (100 nM, 0.1 µM), 89.8%.
In the case of `O=C(Nc1ccc(Oc2ncnc3cc4c(cc23)OCCOCCOCCO4)c(F)c1)c1c2n(n(-c3ccc(F)cc3)c1=O)CCCC2` [DC621067, N-(3-fluoro-4-((7,8,10,11,13,14-hexahydro-[1,4,7,10]tetraoxacyclododecane [2,3-g]quinazolin-4-yl)oxy)phenyl)-1-(4-fluorophenyl)-2-oxo-1,2,4,5,6,7-hexahydropyrazolo[1,5-a]pyridine-3-formamide], the inhibition at 0.001 µM in assay [1] came to 8.6%; with BaF3/TEL-AXL cells (setting [5]), 80.6%. Moreover, the results for the inhibition at 0.01 µM (in assay [1]; with BaF3/TEL-AXL cells (setting [6])) were 54.5% and 87.2%, respectively. Moreover, the inhibition at 0.1 µM in assay [1] turned out to be 89%; with BaF3/TEL-AXL cells (setting [7]), 80.8%. Also, the entries for the “BaF3/TEL-AXL proliferation Inhibitory rate (%)” value in the assay with BaF3/TEL-AXL cells (setting [3]), with BaF3/TEL-AXL cells (setting [8]) and with BaF3/TEL-AXL cells (setting [4]) were 74.8%, 85.4% and 83.0%, respectively.
As to `COCCOc1cc2ncnc(Oc3ccc(NC(=O)c4c5n(n(-c6ccccc6)c4=O)CCCC5)c(F)c3)c2cc1OCCOC` [DC621051, N-(4-((6,7-bis(2-methoxyethoxy)quinazolin-4-yl)oxy)-2-fluorophenyl)-2-oxo-1-phenyl-1,2,4,5,6,7-hexahydropyrazolo[1,5-a]pyridine-3-formamide], the inhibition at 0.001 µM in assay [1] was 8.2%; in the assay with BaF3/TEL-AXL cells (setting [5]) it was 84.7%; in the assay with BaF3/TEL-AXL cells (concentration of 1 nM, read-out: inhibited the proliferation of BaF3/TEL-AXL cells), > 70%; in assay [2] (1 nM) it was 39.5%. Moreover, the inhibition at 0.01 µM turned out to be 54.2% in assay [1], 85.8% in the assay on BaF3/TEL-AXL cells (setting [6]) and 62.4% in assay [2] (10 nM). Besides, the results for the inhibition at 0.1 µM (in assay [1]; in the assay with BaF3/TEL-AXL cells (setting [7]); in assay [2] (100 nM)) were 100%, 86.7% and 93.9%, respectively. The “BaF3/TEL-AXL proliferation Inhibitory rate (%)” value with BaF3/TEL-AXL cells (setting [3]) is listed as 82.9%; with BaF3/TEL-AXL cells (setting [8]) it was 85.9%; with BaF3/TEL-AXL cells (setting [4]), 86.6%. Also, the “c-Met Inhibitory rate (%)” value came to 55.2% in assay [2] (1 nM, 0.001 µM); 75.9% in assay [2] (10 nM, 0.01 µM); 97.5% in assay [2] (100 nM, 0.1 µM).
Consider `O=C(Nc1ccc(Oc2ncnc3cc4c(cc23)OCCOCCOCCO4)c(F)c1)c1c2n(n(-c3cc(F)ccc3F)c1=O)CCCC2` [DC621063, 1-(2,5-difluorophenyl)-N-(3-fluoro-4-((7,8,10,11,13,14-hexahydro-[1,4,7,10]tetraoxacyclododecane[2,3-g]quinazolin-4-yl)oxy)phenyl)-2-oxo-1,2,4,5,6,7-hexahydropyrazolo[1,5-a]pyridine-3-formamide], for which the inhibition at 0.001 µM was 11.5% in assay [1], 47.8% with BaF3/TEL-AXL cells (setting [5]) and 17.7% in assay [2] (1 nM). Moreover, the figures for the inhibition at 0.01 µM (in assay [1]; in the assay with BaF3/TEL-AXL cells (setting [6]); in assay [2] (10 nM)) were 60.5%, 67.2% and 46.4%, respectively. Moreover, the inhibition at 0.1 µM worked out at 91.8% in assay [1], 82.3% in the assay with BaF3/TEL-AXL cells (setting [7]) and 94.8% in assay [2] (100 nM). Further, the “BaF3/TEL-AXL proliferation Inhibitory rate (%)” value is listed as 61.0% in the assay with BaF3/TEL-AXL cells (setting [3]), 66.0% in the assay with BaF3/TEL-AXL cells (setting [8]) and 78.2% with BaF3/TEL-AXL cells (setting [4]). Besides, the “c-Met Inhibitory rate (%)” value worked out at 32.4% in assay [2] (1 nM, 0.001 µM); 56.2% in assay [2] (10 nM, 0.01 µM); 99.2% in assay [2] (100 nM, 0.1 µM).
Take `COCCOc1cc2ncnc(Oc3ccc(NC(=O)c4c5n(n(-c6cc(F)ccc6F)c4=O)CCCC5)cc3Cl)c2cc1OCCOC` [DC621080, 1-(2,5-difluorophenyl)-N-(4-((6,7-bis(2-methoxyethoxy)quinazolin-4-yl)oxy)-3-chlorophenyl)-2-oxo-1,2,4,5,6,7-hexahydropyrazolo[1,5-a]pyridine-3-formamide]: the inhibition at 0.001 µM in assay [1] amounted to 35.5%. For the same molecule, the inhibition at 0.01 µM in assay [1] was 76.4%; in assay [2] (10 nM) it was 68.8%. Further, the inhibition at 0.1 µM came to 100% in assay [1] and 97.1% in assay [2] (100 nM). Further, the “c-Met Inhibitory rate (%)” value in assay [2] (10 nM, 0.01 µM) is 58.3%; in assay [2] (100 nM, 0.1 µM), 93.5%.
